Laboratory results from ChEMBL document CHEMBL3045914, “Response of dry bean to pre-plant incorporated and pre-emergence applications of S-metolachlor and fomesafen” (Crop Prot, 2009).

Tests used:
Type in all cases: organism-based
Phaseolus vulgaris [1] = experiment: Toxicity in Phaseolus vulgaris (kidney dry bean) assessed as visible injury on leaves at 2 times recommended dose treated at pre-emergence application after 14 days; conditions: in vivo, other, 336 h
Phaseolus vulgaris [2] = experiment: Toxicity in Phaseolus vulgaris (black dry bean) assessed as visible injury on leaves at recommended dose treated at pre-plant incorporated application after 14 days; conditions: in vivo, other, 336 h
Phaseolus vulgaris [3] = experiment: Toxicity in Phaseolus vulgaris (cranberry dry bean) assessed as visible injury on leaves at 2 times recommended dose treated at pre-plant incorporated application after 14 days; conditions: in vivo, other, 336 h
Phaseolus vulgaris [4] = experiment: Toxicity in Phaseolus vulgaris (dry bean)assessed as visible injury on leaves at 280 to 560 g a.i. ha'-1 after 14 days; conditions: in vivo, 336 h
Phaseolus vulgaris [5] = experiment: Toxicity in Phaseolus vulgaris (kidney dry bean) assessed as visible injury on leaves at recommended dose treated at pre-plant incorporated application after 14 days; conditions: in vivo, other, 336 h
Phaseolus vulgaris [6] = experiment: Toxicity in Phaseolus vulgaris (kidney dry bean) assessed as visible injury on leaves at 2 times recommended dose treated at pre-plant incorporated application after 14 days; conditions: in vivo, other, 336 h
Phaseolus vulgaris [7] = experiment: Toxicity in Phaseolus vulgaris (dry bean) assessed as visible injury on leaves at 280 to 560 g a.i. ha'-1 after 28 days; conditions: in vivo, 672 h
Phaseolus vulgaris [8] = experiment: Toxicity in Phaseolus vulgaris (cranberry dry bean) assessed as visible injury on leaves at recommended dose treated at pre-plant incorporated application after 14 days; conditions: in vivo, other, 336 h
Phaseolus vulgaris [9] = experiment: Toxicity in Phaseolus vulgaris (kidney dry bean) assessed as visible injury on leaves at recommended dose treated at pre-emergence application after 14 days; conditions: in vivo, other, 336 h
Phaseolus vulgaris [10] = experiment: Toxicity in Phaseolus vulgaris (black dry bean) assessed as visible injury on leaves at 2 times recommended dose treated at pre-plant incorporated application after 14 days; conditions: in vivo, other, 336 h
Phaseolus vulgaris [11] = experiment: Toxicity in Phaseolus vulgaris (dry bean)assessed as visible injury on leaves at 280 to 560 g a.i. ha'-1 after 7 days; conditions: in vivo, 168 h
Phaseolus vulgaris [12] = experiment: Toxicity in Phaseolus vulgaris (white dry bean) assessed as visible injury on leaves at 2 times recommended dose treated at pre-emergence application after 14 days; conditions: in vivo, other, 336 h
Phaseolus vulgaris [13] = experiment: Toxicity in Phaseolus vulgaris (dry bean) assessed as plant height at 280 to 560 g a.i. ha'-1; conditions: in vivo
Phaseolus vulgaris [14] = experiment: Toxicity in Phaseolus vulgaris (white dry bean) assessed as visible injury on leaves at 2 times recommended dose treated at pre-plant incorporated application after 14 days; conditions: in vivo, other, 336 h
Phaseolus vulgaris [15] = experiment: Toxicity in Phaseolus vulgaris (white dry bean) assessed as visible injury on leaves at recommended dose treated at pre-emergence application after 14 days; conditions: in vivo, other, 336 h
Phaseolus vulgaris [16] = experiment: Toxicity in Phaseolus vulgaris (black dry bean) assessed as visible injury on leaves at 2 times recommended dose treated at pre-emergence application after 14 days; conditions: in vivo, other, 336 h
Phaseolus vulgaris [17] = experiment: Toxicity in Phaseolus vulgaris (dry bean) assessed as yield at 280 to 560 g a.i. ha'-1; conditions: in vivo
Phaseolus vulgaris [18] = experiment: Toxicity in Phaseolus vulgaris (cranberry dry bean) assessed as visible injury on leaves at recommended dose treated at pre-emergence application after 14 days; conditions: in vivo, other, 336 h
Phaseolus vulgaris [19] = experiment: Toxicity in Phaseolus vulgaris (cranberry dry bean) assessed as visible injury on leaves at 2 times recommended dose treated at pre-emergence application after 14 days; conditions: in vivo, other, 336 h
Phaseolus vulgaris [20] = experiment: Toxicity in Phaseolus vulgaris (dry bean) assessed as shoot dry weight per row at 280 to 560 g a.i. ha'-1; conditions: in vivo
Phaseolus vulgaris [21] = experiment: Toxicity in Phaseolus vulgaris (black dry bean) assessed as visible injury on leaves at recommended dose treated at pre-emergence application after 14 days; conditions: in vivo, other, 336 h
Phaseolus vulgaris [22] = experiment: Toxicity in Phaseolus vulgaris (white dry bean) assessed as visible injury on leaves at recommended dose treated at pre-plant incorporated application after 14 days; conditions: in vivo, other, 336 h
Phaseolus vulgaris [23] = experiment: Toxicity in Phaseolus vulgaris (dry bean) assessed as visible injury on leaves at 1373 to 2746 g a.i. ha'-1 after 7 days; conditions: in vivo, 168 h
Phaseolus vulgaris [24] = experiment: Toxicity in Phaseolus vulgaris (dry bean) assessed as yield at 1373 to 2746 g a.i. ha'-1; conditions: in vivo
Phaseolus vulgaris [25] = experiment: Toxicity in Phaseolus vulgaris (dry bean) assessed as visible injury on leaves at 1373 to 2746 g a.i. ha'-1 after 28 days; conditions: in vivo, 672 h
Phaseolus vulgaris [26] = experiment: Toxicity in Phaseolus vulgaris (dry bean) assessed as plant height at 1373 to 2746 g a.i. ha'-1; conditions: in vivo
Phaseolus vulgaris [27] = experiment: Toxicity in Phaseolus vulgaris (dry bean) assessed as shoot dry weight per row at 1373 to 2746 g a.i. ha'-1; conditions: in vivo
Phaseolus vulgaris [28] = experiment: Toxicity in Phaseolus vulgaris (dry bean) assessed as visible injury on leaves at 1373 to 2746 g a.i. ha'-1 after 14 days; conditions: in vivo, 336 h

| SMILES | Activity (Phaseolus vulgaris [1]) [%] | Activity (Phaseolus vulgaris [2]) [%] | Activity (Phaseolus vulgaris [3]) [%] | Activity (Phaseolus vulgaris [5]) [%] | Activity (Phaseolus vulgaris [6]) [%] | Activity (Phaseolus vulgaris [8]) [%] | Activity (Phaseolus vulgaris [9]) [%] | Activity (Phaseolus vulgaris [10]) [%] | Activity (Phaseolus vulgaris [12]) [%] | Activity (Phaseolus vulgaris [14]) [%] | Activity (Phaseolus vulgaris [15]) [%] | Activity (Phaseolus vulgaris [16]) [%] | Activity (Phaseolus vulgaris [18]) [%] | Activity (Phaseolus vulgaris [19]) [%] | Activity (Phaseolus vulgaris [21]) [%] | Activity (Phaseolus vulgaris [22]) [%] | also measured |
| --- | --- | --- | --- | --- | --- | --- | --- | --- | --- | --- | --- | --- | --- | --- | --- | --- | --- |
| CS(=O)(=O)NC(=O)c1cc(Oc2ccc(C(F)(F)F)cc2Cl)ccc1[N+](=O)[O-] [FOMESAFEN] | 0.2 | 0.8 | 0 | 0.3 | 0.2 | 0.1 | 0 | 0.5 | 0.4 | 0.2 | 0.1 | 1.2 | 0 | 0 | 1 | 0.5 | Activity (Phaseolus vulgaris [4]): 0.2%; Activity (Phaseolus vulgaris [7]): 0%; Activity (Phaseolus vulgaris [11]): 0.2%; Activity (Phaseolus vulgaris [13]): 49 cm; Crop_yield (Phaseolus vulgaris [17]): 2.4 tons/ha; Activity (Phaseolus vulgaris [20]): 40 g |
| CCc1cccc(C)c1N(C(=O)CCl)[C@@H](C)COC [S-METOLACHLOR] | 0.1 | 0.9 | 0.2 | 0.1 | 0.7 | 0.1 | 0 | 0.7 | 6.6 | 1.6 | 4.2 | 5.5 | 0 | 0.1 | 3.4 | 0.5 | Activity (Phaseolus vulgaris [23]): 0.7%; Crop_yield (Phaseolus vulgaris [24]): 2.4 tons/ha; Activity (Phaseolus vulgaris [25]): 0.2%; Activity (Phaseolus vulgaris [26]): 49 cm; Activity (Phaseolus vulgaris [27]): 39 g; Activity (Phaseolus vulgaris [28]): 1% |
